Test results as given in US20220202912A1, “Polypeptides in Preparation of Drugs for Treatment or Prevention of Rheumatoid Arthritis” (priority 2011, published 2022).

Experiments:
[1] = tested on: AIA transgenic TNF-luc mice; experiment: adjuvant-induced arthritis in transgenic TNF-luc mice (swelling, scores, weight, HE staining); type: in vivo, BALB/c transgenic TNF-luc mice; set-up: right ankle swelling / left ankle swelling / left toe swelling / right toe swelling / changes of weight (added value): unit not given here; settings: Adalimumab 8 mg/kg
Experimental: 8 animals are randomly divided into 4 groups (n=2), a normal group, a model group, a positive drug group and a test group. On day 0, the initial left and right ankle thicknesses, initial left and right foot palm thicknesses and initial left and right toe thicknesses of each group of mice are measured. On day 0, 50 μL/mouse complete Freund's adjuvant is injected into the bottom of the left toe of each group of mice, and the treatment is started after secondary inflammation appears in the right foot of each group of mice on day 17. On day 17, the normal group and the model group are hypodermically injected with 0.9% normal saline (0.2 mL/20 g of body weight), once every 2 days, 7 times in total. The positive drug Adalimumab group is hypodermically injected with Adalimumab (8 mg/kg of body weight), once every 15 days, once in total. The test group is hypodermically injected with mPEG-SC20k-HM-3 (20 mg/kg of body weight), once every 2 days, 7 times in total. The treatment lasts for 15 days. Then, medication is stopped for observation for one week, and the mice are killed one week later.
On day 0, the initial ankle widths, foot palm widths and toe thicknesses of left and right feet are measured with a vernier caliper as initial values. Every 2 days, the left and right ankle widths, foot palm widths and toe thicknesses of each group of mice are measured separately with the vernier caliper, and compared with the initial values to calculate the changes in the swelling degree.
The joints of the mouse paw are observed with naked eyes, and the joints are scored every 2 days from day 17. Scoring is performed in terms of level 0 to level 4, 5 levels in total.
After the secondary inflammation appears, systemic scoring is performed every 2 days.
(§1) Changes of expression of TNF-α and IL-6 are analyzed by HE staining and immunohistochemistry in the ankle joint, spleen and thymus of the mice. Observation and photographing are performed under the FOVs of ×200 and ×400 times respectively, 5 FOVs are taken randomly for each picture, and data statistics is performed.

IL-6 = experiment: immunohistochemistry of IL-6 in spleen and thymus, AIA transgenic TNF-luc mice; type: in vivo, BALB/c transgenic TNF-luc mice; settings: Adalimumab 8 mg/kg, mPEG-SC20k-HM-3 20 mg/kg
Experimental: as §1

TNF-α = experiment: in vivo imaging of TNF-α expression, CIA transgenic TNF-luc mice; set-up: species or system BALB/c transgenic TNF-luc mice; settings: day 36; Adalimumab 8 mg/kg, mPEG-SC20k-HM-3 20 mg/kg
Experimental: […] After the mice are lightly anesthetized with ether, the mice are fixed within 5-20 min and put into an in vivo imager, the imager is covered with an instrument lid, on-fluro and om-photo names in the desktop imaging interface of the computer are clicked, and the expose button is clicked to complete the fluorescence and white light photos of mice in vivo imaging. The specific imaging principle, operation steps, image processing and output are the same as those in the previous embodiment.

[2] = 0 d, before treatment (starts day 17), mPEG-SC20k-HM-3 20 mg/kg groups
[3] = 1 d, before treatment (starts day 17), mPEG-SC20k-HM-3 20 mg/kg groups
[4] = 3 d, before treatment (starts day 17), mPEG-SC20k-HM-3 20 mg/kg groups
[5] = 6 d, before treatment (starts day 17), mPEG-SC20k-HM-3 20 mg/kg groups
[6] = 9 d, before treatment (starts day 17), mPEG-SC20k-HM-3 20 mg/kg groups
[7] = 12 d, before treatment (starts day 17), mPEG-SC20k-HM-3 20 mg/kg groups
[8] = 16 d, before treatment (starts day 17), mPEG-SC20k-HM-3 20 mg/kg groups
[9] = 17 d (treatment starts), mPEG-SC20k-HM-3 20 mg/kg sc
[10] = 19 d, mPEG-SC20k-HM-3 20 mg/kg sc
[11] = 20 d, mPEG-SC20k-HM-3 20 mg/kg sc
[12] = 22 d, mPEG-SC20k-HM-3 20 mg/kg sc
[13] = 23 d, mPEG-SC20k-HM-3 20 mg/kg sc
[14] = 25 d, mPEG-SC20k-HM-3 20 mg/kg sc
[15] = 26 d, mPEG-SC20k-HM-3 20 mg/kg sc
[16] = 28 d, mPEG-SC20k-HM-3 20 mg/kg sc
[17] = 29 d, mPEG-SC20k-HM-3 20 mg/kg sc
[18] = 31 d, mPEG-SC20k-HM-3 20 mg/kg sc
[19] = 32 d, mPEG-SC20k-HM-3 20 mg/kg sc

## Adalimumab [reference compound]
[1]; [2]
  changes of weight (added value): 0.00 ± 0.00
  left ankle swelling: 0.000 ± 0.000
  left foot (palm) swelling: 0.000 ± 0.000
  left toe swelling: 0.000 ± 0.000
[1]; [3]
  left ankle swelling: 0.239 ± 0.033
  left foot (palm) swelling: 0.236 ± 0.062
  left toe swelling: 0.326 ± 0.028
[1]; [4]
  changes of weight (added value): 0.07 ± 0.15
  left ankle swelling: 0.262 ± 0.071
  left foot (palm) swelling: 0.289 ± 0.016
  left toe swelling: 0.323 ± 0.086
[1]; [5]
  changes of weight (added value): 0.09 ± 0.54
  left ankle swelling: 0.226 ± 0.023
  left foot (palm) swelling: 0.272 ± 0.057
  left toe swelling: 0.272 ± 0.076
[1]; [6]
  changes of weight (added value): 0.07 ± 0.25
  left ankle swelling: 0.260 ± 0.020
  left foot (palm) swelling: 0.302 ± 0.003
  left toe swelling: 0.298 ± 0.122
[1]; [7]
  changes of weight (added value): 0.25 ± 0.83
  left ankle swelling: 0.264 ± 0.018
  left foot (palm) swelling: 0.295 ± 0.021
  left toe swelling: 0.328 ± 0.079
[1]; 15 d, before treatment (starts day 17), mPEG-SC20k-HM-3 20 mg/kg groups
  changes of weight (added value): 0.16 ± 0.66
[1]; [8]
  left ankle swelling: 0.265 ± 0.021
  left foot (palm) swelling: 0.271 ± 0.064
  left toe swelling: 0.328 ± 0.065
  right ankle swelling: 0.010 ± 0.006
  right foot palm swelling: 0.010 ± 0.006
  right toe swelling: 0.011 ± 0.033
[1]; [9]
  joint index score: 7.50 ± 0.70
  whole body (systemic) score: 7.00 ± 1.40
[1]; [10]
  changes of weight (added value): 0.44 ± 0.60
  left ankle swelling: 0.254 ± 0.018
  left foot (palm) swelling: 0.247 ± 0.078
  left toe swelling: 0.311 ± 0.033
  right ankle swelling: 0.010 ± 0.014
  right foot palm swelling: 0.029 ± 0.001
  right toe swelling: 0.012 ± 0.037
[1]; [11]
  joint index score: 7.50 ± 0.70
  whole body (systemic) score: 6.50 ± 2.10
[1]; [12]
  changes of weight (added value): 0.62 ± 0.48
  left ankle swelling: 0.235 ± 0.013
  left foot (palm) swelling: 0.249 ± 0.126
  left toe swelling: 0.248 ± 0.136
  right foot palm swelling: 0.004 ± 0.003
  right toe swelling: 0.002 ± 0.042
[1]; [13]
  joint index score: 8.00 ± 0.00
  whole body (systemic) score: 4.50 ± 2.10
[1]; [14]
  changes of weight (added value): 0.55 ± 0.02
  left ankle swelling: 0.218 ± 0.028
  left foot (palm) swelling: 0.234 ± 0.040
  left toe swelling: 0.309 ± 0.058
  right foot palm swelling: 0.013 ± 0.016
  right toe swelling: 0.004 ± 0.040
[1]; [15]
  joint index score: 6.50 ± 0.70
  whole body (systemic) score: 4.00 ± 1.40
[1]; [16]
  changes of weight (added value): 0.77 ± 0.33
  left foot (palm) swelling: 0.258 ± 0.042
  left toe swelling: 0.285 ± 0.075
  right foot palm swelling: 0.008 ± 0.006
  right toe swelling: 0.009 ± 0.035
[1]; [17]
  joint index score: 6.50 ± 0.70
  whole body (systemic) score: 4.00 ± 1.40
[1]; [18]
  changes of weight (added value): 1.02 ± 0.98
  left foot (palm) swelling: 0.235 ± 0.061
  left toe swelling: 0.290 ± 0.023
  right foot palm swelling: 0.010 ± 0.003
  right toe swelling: 0.003 ± 0.021
[1]; [19]
  joint index score: 6.50 ± 0.70
  whole body (systemic) score: 3.50 ± 0.70
[1]; mPEG-SC20k-HM-3 20 mg/kg
  HE staining of ankle joints: pathological symptoms vs model group: relieved to some extent
IL-6
  immunohistochemical score of IL-6 in spleen: 0.013±0.010
  immunohistochemical score of IL-6 in thymus: 0.039±0.041
TNF-α
  in vivo fluorescence densities: 20.76±4.43 10^5
